One data set deals with T1, BRD2 (BD1) (Homo sapiens, UniProt P25440).
T1 construct: tagged bromodomains and acetylated histone peptides as; purchased Reaction Biology
Briefly: AlphaScreen bromodomain binding assay, BRD2 BD1. Particulars: Fig. 1b; italicized values from the literature (italics not visible).

Data set [1] is described as follows: Cell viability (cytotoxicity) assay, normal tonsillar epithelial cells. Particulars: human, normal tonsillar epithelial cells (RRP008), surrogate for toxicity of normal tissue, read-out: Half maximal inhibitory concentration (IC50) in cell line cytotoxicity assays, Tonsillar Epithelia. The format is cell-based.
In data set [2] the test system is NCI-60 Panel of Human Tumor Cell Line. The format is cell-based. Particulars: 10 µM, one-dose assay.
In the next data set the target is T2, PI3Kδ (Homo sapiens, UniProt O00329).
T2 construct: purchased ThermoFisher Scientific
Briefly: In vitro kinase assay, PI3Kδ. The format is biochemical. Particulars: Fig. 1b; italicized values from the literature (italics not visible).

For a further data set, the target named is CDK4 (Homo sapiens, UniProt P11802). Nature of the data set: In vitro kinase assay, CDK4. The following applies: Fig. 1b; italicized values from the literature (italics not visible). Type of data set: biochemical.
For data set [3], the system named is Hepatocellular carcinoma cells (Hep3B, HepG2, and Huh7). Briefly: Cell viability (cytotoxicity) assay, hepatocellular carcinoma cells. The format is cell-based. The following applies: Homo sapiens; 48 hours, CCK8 or Alamar Blue; curves of Fig. 1f-j; read-out: Half maximal inhibitory concentration (IC50) in cell line cytotoxicity assays, Hepatocellular Carcinoma. (Alamar Blue is a resazurin reagent that responds to reducing activity.)

The target of a further data set is T3, BRD3 (BD1) (Homo sapiens, UniProt Q15059).
T3 construct: tagged bromodomains and acetylated histone peptides as; purchased Reaction Biology
Nature of the data set: AlphaScreen bromodomain binding assay, BRD3 BD1. Particulars: Fig. 1b; italicized values from the literature (italics not visible). On the technique in general: In Alpha technology, singlet oxygen from a donor bead excites a nearby acceptor bead.

The next data set addresses T4, BRD3 (BD2) (Homo sapiens, UniProt Q15059).
T4 construct: tagged bromodomains and acetylated histone peptides as; purchased Reaction Biology
Nature of the data set: AlphaScreen bromodomain binding assay, BRD3 BD2. Particulars: Fig. 1b; italicized values from the literature (italics not visible).

The test system of data set [4] is mantle cell lymphoma (Granta-519, Mino, and Jeko-1). Briefly: Cell viability (cytotoxicity) assay, mantle cell lymphoma cells. The format is cell-based. Particulars: Homo sapiens; 48 hours, CCK8 or Alamar Blue; curves of Fig. 1f-j; read-out: Half maximal inhibitory concentration (IC50) in cell line cytotoxicity assays, Mantle Cell Lymphoma.
Data set [5] deals with neuroblastoma cells (CHLA-255, CHLA-136, and SMS-KNCR). Nature of the data set: Cell viability (cytotoxicity) assay, neuroblastoma cells. The format is cell-based. Particulars: Homo sapiens, 48 hours, CCK8 or Alamar Blue, curves of Fig. 1f-j, read-out: Half maximal inhibitory concentration (IC50) in cell line cytotoxicity assays, Neuroblastoma.
Data set [6] relates to pRb Ser780 (downstream surrogate of CDK4/6 activity). Briefly: Immunoblotting for Rb phosphorylation. Type of data set: cell-based, human. The following applies: Huh7, CHLA-255 and Jeko-1 cells, stimulated with 50 ng/mL IGF-1, increasing concentrations, 30 minutes. The text has this: from James Bradner (Dana-Farber Cancer Institute, Boston, MA). […]
from Novartis (Basel, Switzerland). Palbociclib was obtained from LC Laboratories (Woburn, MA). Recombinant human IGF-1 was from Peprotech (Rocky Hill, NJ). Antibodies specific for […]
Cell Signaling Technology (Beverly, MA). GAPDH antibody (GT239) was from GeneTex, Inc.
Molecular models were created to design and dock molecules in silico using the software engines AutoDock Vina1 and rDock2 and the crystal structures of BRD4 (PDB ID: 4CFK), PI3K (PDB ID: 4JPS) and CDK6 (PDB ID: 5L2T).
Bromodomain and kinase assays
Inhibition of BET family members was measured using Alpha Screen assays from Reaction Biology (Malvern, PA) with His -tagged bromodomains and acetylated histone peptides as ligands. CDK and PI3K isoform activities were measured using in vitro kinase assays from Reaction Biology and ThermoFisher Scientific (Waltham, MA), respectively. KINOME scan and BROMOscan assays were performed at Eurofins DiscoverX (Fremont, CA) with data analyzed […]
Protein expression and purification
BRD4 BD1 (aa 43-180) and BD2 (aa 342 -460) were expressed in E. coli BL21 (DE3) RIL in either Luria Broth or […] minimal media supplemented with 15NH4Cl. […]
or 100 µM in triplicate the following day. […] For CCK8, absorbance was measured at 450 nm; for Alamar Blue, fluorescence signals were read as emission at 590 nm after excitation at 560 nm. […]
(In western blotting, separated proteins are transferred to a membrane and probed.)

In another data set the target is mTOR (Homo sapiens, UniProt P42345). Briefly: In vitro kinase assay, mTOR. The format is biochemical. The following applies: Fig. 1b; italicized values from the literature (italics not visible).
The target in another data set is T5, PI3Kγ (Homo sapiens, UniProt P48736).
T5 construct: purchased ThermoFisher Scientific
Nature of the data set: In vitro kinase assay, PI3Kγ. Type of data set: biochemical. The following applies: Fig. 1b; italicized values from the literature (italics not visible).

The test system of the next data set is bromodomain panel. Briefly: BROMOscan assay (Eurofins DiscoverX). Type of data set: binding.
In the next data set the target is T6, BRD2 (BD2) (Homo sapiens, UniProt P25440).
T6 construct: tagged bromodomains and acetylated histone peptides as; purchased Reaction Biology
Nature of the data set: AlphaScreen bromodomain binding assay, BRD2 BD2. The following applies: Fig. 1b; italicized values from the literature (italics not visible).

The next data set has as its target T7, CDK2 (Homo sapiens, UniProt P24941).
T7 construct: purchased Reaction Biology
Briefly: In vitro kinase assay, CDK2. Type of data set: biochemical. The following applies: Fig. 1b; italicized values from the literature (italics not visible).

Structures are written as SMILES. Where only a bound is given, the exact number is not on record here.

T3 sequence (Q15059 34-140 limits assumed): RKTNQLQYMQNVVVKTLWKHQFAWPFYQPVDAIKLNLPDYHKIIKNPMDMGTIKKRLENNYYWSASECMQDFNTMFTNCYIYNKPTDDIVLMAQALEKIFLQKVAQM
T1 sequence (P25440 74-180 limits assumed): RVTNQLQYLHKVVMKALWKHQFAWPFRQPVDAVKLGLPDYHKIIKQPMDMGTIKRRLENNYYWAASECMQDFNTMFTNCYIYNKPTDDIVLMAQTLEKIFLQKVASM
T5 sequence (P48736 whole entry): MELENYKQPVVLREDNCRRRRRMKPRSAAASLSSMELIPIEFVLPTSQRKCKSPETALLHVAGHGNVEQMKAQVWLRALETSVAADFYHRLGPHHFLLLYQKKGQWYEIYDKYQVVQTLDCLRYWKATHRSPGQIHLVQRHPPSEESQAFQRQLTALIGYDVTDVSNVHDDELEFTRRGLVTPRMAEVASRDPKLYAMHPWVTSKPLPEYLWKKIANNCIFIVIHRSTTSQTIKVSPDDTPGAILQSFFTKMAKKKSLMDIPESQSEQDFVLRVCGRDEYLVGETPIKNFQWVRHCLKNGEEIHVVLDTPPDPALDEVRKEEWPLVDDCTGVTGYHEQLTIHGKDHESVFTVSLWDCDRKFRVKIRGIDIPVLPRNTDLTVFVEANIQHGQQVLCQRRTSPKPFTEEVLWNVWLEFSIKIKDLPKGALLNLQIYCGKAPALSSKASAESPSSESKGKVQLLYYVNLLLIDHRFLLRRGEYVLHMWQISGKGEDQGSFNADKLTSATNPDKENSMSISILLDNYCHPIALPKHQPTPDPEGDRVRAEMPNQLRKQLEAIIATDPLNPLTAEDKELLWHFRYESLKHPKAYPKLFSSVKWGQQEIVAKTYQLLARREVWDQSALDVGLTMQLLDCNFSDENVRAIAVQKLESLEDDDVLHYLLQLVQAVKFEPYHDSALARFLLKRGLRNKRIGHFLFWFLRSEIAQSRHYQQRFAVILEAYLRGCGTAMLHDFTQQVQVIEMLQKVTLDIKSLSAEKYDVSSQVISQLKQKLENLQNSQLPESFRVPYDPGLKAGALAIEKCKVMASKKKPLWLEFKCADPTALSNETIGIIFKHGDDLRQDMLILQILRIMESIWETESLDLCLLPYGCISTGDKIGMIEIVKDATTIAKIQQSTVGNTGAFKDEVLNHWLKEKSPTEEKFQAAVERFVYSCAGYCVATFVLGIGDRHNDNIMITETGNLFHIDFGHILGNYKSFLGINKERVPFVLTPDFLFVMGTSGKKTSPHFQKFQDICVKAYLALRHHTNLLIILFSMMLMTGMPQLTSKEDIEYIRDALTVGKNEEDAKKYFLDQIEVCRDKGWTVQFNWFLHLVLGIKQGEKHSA
T6 sequence (P25440 344-453 limits assumed): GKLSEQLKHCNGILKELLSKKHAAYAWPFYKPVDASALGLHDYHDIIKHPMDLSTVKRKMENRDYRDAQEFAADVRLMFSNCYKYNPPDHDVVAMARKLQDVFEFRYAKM
Sequence of CDK4 (P11802 whole entry): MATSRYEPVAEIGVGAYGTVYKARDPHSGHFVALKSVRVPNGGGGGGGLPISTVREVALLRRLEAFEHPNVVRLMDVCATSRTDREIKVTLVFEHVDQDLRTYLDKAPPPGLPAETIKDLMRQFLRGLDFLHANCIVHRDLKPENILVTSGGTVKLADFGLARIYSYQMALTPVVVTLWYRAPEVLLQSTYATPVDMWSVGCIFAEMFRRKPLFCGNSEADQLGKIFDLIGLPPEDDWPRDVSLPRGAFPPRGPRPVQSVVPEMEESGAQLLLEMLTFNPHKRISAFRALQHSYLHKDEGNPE
Sequence of CDK4 (P24385 whole entry partner): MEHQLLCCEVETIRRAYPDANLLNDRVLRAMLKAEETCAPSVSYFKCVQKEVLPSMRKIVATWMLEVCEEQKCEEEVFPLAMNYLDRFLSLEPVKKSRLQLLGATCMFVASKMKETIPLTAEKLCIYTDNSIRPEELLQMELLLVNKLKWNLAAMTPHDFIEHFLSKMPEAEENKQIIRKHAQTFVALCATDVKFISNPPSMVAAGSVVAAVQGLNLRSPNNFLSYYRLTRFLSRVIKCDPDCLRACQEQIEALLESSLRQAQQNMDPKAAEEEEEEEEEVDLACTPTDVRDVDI
T2 sequence (O00329 whole entry): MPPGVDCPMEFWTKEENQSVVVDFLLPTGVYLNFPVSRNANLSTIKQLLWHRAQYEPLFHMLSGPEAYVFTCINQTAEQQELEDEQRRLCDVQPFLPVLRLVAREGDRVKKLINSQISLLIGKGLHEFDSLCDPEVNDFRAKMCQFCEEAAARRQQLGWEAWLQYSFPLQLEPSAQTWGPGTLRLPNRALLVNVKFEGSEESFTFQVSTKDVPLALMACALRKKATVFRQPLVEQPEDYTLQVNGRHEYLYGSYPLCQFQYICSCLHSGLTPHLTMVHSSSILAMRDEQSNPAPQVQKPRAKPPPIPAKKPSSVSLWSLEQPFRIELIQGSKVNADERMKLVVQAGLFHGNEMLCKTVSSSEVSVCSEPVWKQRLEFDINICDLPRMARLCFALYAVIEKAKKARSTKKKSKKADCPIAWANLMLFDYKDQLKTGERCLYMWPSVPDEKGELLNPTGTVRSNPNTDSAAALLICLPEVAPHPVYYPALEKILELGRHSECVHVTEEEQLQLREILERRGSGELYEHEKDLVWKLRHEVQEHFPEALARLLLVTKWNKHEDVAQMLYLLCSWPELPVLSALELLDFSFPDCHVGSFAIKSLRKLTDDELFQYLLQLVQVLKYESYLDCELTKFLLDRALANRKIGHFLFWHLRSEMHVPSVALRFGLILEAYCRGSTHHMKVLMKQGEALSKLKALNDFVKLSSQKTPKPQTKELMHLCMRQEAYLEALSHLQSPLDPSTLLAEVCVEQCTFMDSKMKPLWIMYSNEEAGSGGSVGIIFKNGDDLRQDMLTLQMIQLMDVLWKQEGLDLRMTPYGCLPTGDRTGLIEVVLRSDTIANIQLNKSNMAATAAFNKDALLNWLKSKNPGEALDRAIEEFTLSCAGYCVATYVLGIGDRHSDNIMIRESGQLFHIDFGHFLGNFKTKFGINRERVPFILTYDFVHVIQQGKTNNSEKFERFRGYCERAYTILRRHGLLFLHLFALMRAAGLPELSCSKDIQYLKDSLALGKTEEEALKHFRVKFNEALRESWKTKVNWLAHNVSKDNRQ
T2 sequence (P27986 whole entry partner): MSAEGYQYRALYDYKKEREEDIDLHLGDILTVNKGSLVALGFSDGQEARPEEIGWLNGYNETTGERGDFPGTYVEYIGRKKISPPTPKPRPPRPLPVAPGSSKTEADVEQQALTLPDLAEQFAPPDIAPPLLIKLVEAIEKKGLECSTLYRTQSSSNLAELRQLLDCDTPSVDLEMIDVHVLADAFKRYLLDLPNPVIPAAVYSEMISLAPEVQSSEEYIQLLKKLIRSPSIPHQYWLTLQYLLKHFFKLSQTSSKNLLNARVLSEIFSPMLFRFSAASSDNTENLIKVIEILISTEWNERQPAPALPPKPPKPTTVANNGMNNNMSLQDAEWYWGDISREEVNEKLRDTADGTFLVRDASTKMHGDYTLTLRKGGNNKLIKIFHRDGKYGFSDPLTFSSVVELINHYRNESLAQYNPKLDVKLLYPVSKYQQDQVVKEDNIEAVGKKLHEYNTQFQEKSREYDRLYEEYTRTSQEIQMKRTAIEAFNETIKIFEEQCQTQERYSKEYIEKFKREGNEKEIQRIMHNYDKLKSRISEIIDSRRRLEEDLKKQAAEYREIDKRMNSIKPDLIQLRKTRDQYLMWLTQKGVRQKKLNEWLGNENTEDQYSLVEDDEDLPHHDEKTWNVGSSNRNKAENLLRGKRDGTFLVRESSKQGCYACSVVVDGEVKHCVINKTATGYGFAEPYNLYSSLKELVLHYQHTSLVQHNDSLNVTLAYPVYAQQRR
T4 sequence (Q15059 306-415 limits assumed): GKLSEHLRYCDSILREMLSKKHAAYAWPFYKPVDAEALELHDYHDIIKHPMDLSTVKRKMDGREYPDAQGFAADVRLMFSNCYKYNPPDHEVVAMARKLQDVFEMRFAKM

With `CN(C)C(=O)c1cc2cnc(Nc3ccc(-c4csc5c(=O)cc(N6CCOCC6)oc45)cc3)nc2n1C1CCCC1` [SRX3177], the IC50 at BRD2 (BD1) is 1410 nM; against PI3Kδ, 83 nM; at CDK4, less than 2.5 nM; in [3], 640 nM; on BRD3 (BD1), 106 nM; at BRD3 (BD2), 226 nM. The IC50 in [4] was 830 nM; in data set [5], 550 nM; against mTOR it was 6.91 µM; against PI3Kγ, 3.18 µM; at BRD2 (BD2), 994 nM; against CDK2, 500 nM. The IC50 at 48 h in data set [1] stood at 34 µM. Moreover, the “cytotoxic effect in the NCI-60 panel” value in data set [2] is “cytotoxic effects on the majority of the cell lines tested”. For the same compound, in [2] (NCI-60 panel), the “tumor cytotoxicity compared to SF2523 or SRX3177P” value was “greater tumor cytotoxicity”. Moreover, in data set [6], the “levels of Rb phosphorylation” value is recorded as “decrease in levels of Rb phosphorylation”. Further, the “specificity in BROMOscan” value in the data set on bromodomain panel is “lack of off-targeting”.
